Source: the NIST ThermoML archive (doi:10.1021/acs.jced.8b00547)

Experiments:
[1] = refractive index (Na D-line) (dimensionless); settings: 101 kPa, Liquid, Standard Abbe refractometry
[2] = 101 kPa, Liquid; for speed of sound: Single path-length method; for mass density: Vibrating tube method
[3] = refractive index (Na D-line) (dimensionless); xn = mol fraction of the nth substance listed; settings: 101 kPa, Liquid, Standard Abbe refractometry, x2 = 0
[4] = xn = mol fraction of the nth substance listed; settings: 101 kPa, Liquid, x2 = 0; for speed of sound: Single path-length method; for mass density: Vibrating tube method

CCC(C)O (stereo not given) [butan-2-ol]
Settings	mass density, [2] [kg/m3]	refractive index, [1]	speed of sound, [2] [m/s]
298.15 K	802.4	1.39474	1212
308.15 K	793.86	1.39011	1175.8
318.15 K	785.26	1.38547	1139.5
328.15 K	775.73	1.38022	1102.3
338.15 K	765.75	1.37621	1064.5

CCC(C)O (stereo not given) [butan-2-ol] + CCCC(C)=O
Settings	mass density, [4] [kg/m3]	refractive index, [3]	speed of sound, [4] [m/s]
298.15 K	802.4	1.39474	1212
308.15 K	793.86	1.39011	1175.8
318.15 K	785.26	1.38547	1139.5
328.15 K	775.73	1.38022	1102.3
338.15 K	765.75	1.37621	1064.5

CCCC(C)=O [pentan-2-one]
Settings	mass density, [2] [kg/m3]	refractive index, [1]	speed of sound, [2] [m/s]
298.15 K	802.09	1.38782	1216
308.15 K	792.32	1.38284	1174.4
318.15 K	782.44	1.37782	1133.3
328.15 K	772.43	1.3728	1093.6
338.15 K	762.27	1.36764	1053.8

CC(C)O [propan-2-ol]
Settings	mass density, [2] [kg/m3]	refractive index, [1]	speed of sound, [2] [m/s]
298.15 K	781.1	1.37522	1138.5
308.15 K	772.51	1.37083	1103.2
318.15 K	763.51	1.36622	1068.1
328.15 K	754.19	1.36146	1032.6
338.15 K	743.66	1.35637	997.33

CC(C)O [propan-2-ol] + CCCC(C)=O
Settings	mass density, [4] [kg/m3]	refractive index, [3]	speed of sound, [4] [m/s]
298.15 K	781.1	1.37522	1138.5
308.15 K	772.51	1.37083	1103.2
318.15 K	763.51	1.36622	1068.1
328.15 K	754.19	1.36146	1032.6
338.15 K	743.66	1.35637	997.33
